Each structure is given as a SMILES string. pIC50: −log10 of the molar value.

From patent publication US9273057B2 (Bristol-Myers Squibb Company, priority 2012, dated 2016) come the findings set out here.

For this assay, the target named is CK2A1 (CK2α/β) (Homo sapiens, UniProt P68400). The assay can be described thus: CK2 kinase assay, CK2A1 (CK2α/β). Format: biochemical. Conditions: Table A; read-out: CK2A1 (CK2α/β) (IC50).
CK2A1 (CK2α/β), sequence (P68400 whole entry, species assumed): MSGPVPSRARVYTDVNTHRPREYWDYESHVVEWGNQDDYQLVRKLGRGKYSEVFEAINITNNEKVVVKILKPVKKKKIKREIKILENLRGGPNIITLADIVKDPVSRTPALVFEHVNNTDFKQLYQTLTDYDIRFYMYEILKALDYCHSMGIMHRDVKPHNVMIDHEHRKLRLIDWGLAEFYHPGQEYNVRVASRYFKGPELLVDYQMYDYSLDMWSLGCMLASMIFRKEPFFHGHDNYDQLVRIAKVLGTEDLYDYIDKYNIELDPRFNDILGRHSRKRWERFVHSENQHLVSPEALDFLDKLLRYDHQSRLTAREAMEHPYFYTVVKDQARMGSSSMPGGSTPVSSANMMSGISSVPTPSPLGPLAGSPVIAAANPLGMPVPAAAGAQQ
CK2A1 (CK2α/β), sequence (P67870 whole entry partner, species assumed): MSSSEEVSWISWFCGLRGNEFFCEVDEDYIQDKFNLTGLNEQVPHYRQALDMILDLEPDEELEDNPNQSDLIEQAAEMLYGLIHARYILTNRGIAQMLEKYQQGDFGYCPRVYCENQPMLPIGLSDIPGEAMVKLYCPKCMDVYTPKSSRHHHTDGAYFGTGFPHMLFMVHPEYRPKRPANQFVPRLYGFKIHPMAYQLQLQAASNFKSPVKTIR
`COC(=O)NC1CCN(c2cc(C#N)cc(Nc3nc(NC4CC4)c4ncc(C#N)n4n3)c2Cl)CC1` [Example 146, methyl (1-(2-chloro-5-cyano-3-((7-cyano-4-(cyclopropylamino)imidazo [2,1-f][1,2,4]triazin-2-yl)amino)phenyl)-4-piperidinyl)carbamate]: the pIC50 is 8.92. With `N#Cc1cc(Nc2nc(NC3CC3)c3ncc(C#N)n3n2)c(Cl)c(N2CCC(N3CC(F)(F)C3)CC2)c1` [Example 147, 2-((2-chloro-5-cyano-3-(4-(3,3-difluoro-1-azetidinyl)-1-piperidinyl)phenyl)amino)-4-(cyclopropylamino)imidazo [2,1-f][1,2,4]triazine-7-carbonitrile], the pIC50 is 8.93. On to `CN1CCN(C2CN(c3cc(C#N)cc(Nc4nc(NC5CC5)c5ncc(C#N)n5n4)c3Cl)C2)CC1` [Example 151, 2-((2-chloro-5-cyano-3-(3-(4-methylpiperazin-1-yl)azetidin-1-yl)phenyl)amino)-4-(cyclopropylamino)imidazo[2,1-f][1,2,4]triazine-7-carbonitrile], for which the pIC50 is 9.23. On to `N#Cc1cc(Nc2nc(NC3CC3)c3ncc(C#N)n3n2)c(Cl)c(N2CC(N3CCOCC3)C2)c1` [Example 152, 2-((2-chloro-5-cyano-3-(3-(4-morpholinyl)-1-azetidinyl)phenyl)amino)-4-(cycloproplamino)imidazo [2,1-f][1,2,4]triazine-7-carbonitrile], for which the pIC50 is 9.28.

Turning to `COC(=O)N1CCN(C2CN(c3cc(C#N)cc(Nc4nc(NC5CC5)c5ncc(C#N)n5n4)c3Cl)C2)CC1` [Example 153, methyl 4-(1-(2-chloro-5-cyano-3-((7-cyano-4-(cyclopropylamino)imidazo [2,1-f][1,2,4]triazin-2-yl)amino)phenyl)-3-azetidinyl)-1-piperazinecarboxylate], the pIC50 was 9.19.

For `N#Cc1cc(Nc2nc(NC3CC3)c3ncc(C#N)n3n2)c(Cl)c(N2CC(N3CCNCC3)C2)c1` [Example 155, 2-((2-chloro-5-cyano-3-(3-(1-piperazinyl)-1-azetidinyl)phenyl)amino)-4-(cyclopropylamino)imidazo [2,1-f][1,2,4]triazine-7-carbonitrile], the pIC50 was 9.38. As to `CN1CCN(C2CN(c3cc(C#N)cc(Nc4nc(NC5CC5)c5ncc(C#N)n5n4)c3Cl)C2)CC1=O` [Example 156, 2-((2-chloro-5-cyano-3-(3-(4-methyl-3-oxo-1-piperazinyl)-1-azetidinyl)phenyl)amino)-4-(cyclopropylamino)imidazo [2,1-f][1,2,4]triazine-7-carbonitrile], the pIC50 was 9.44. The same measure for `CC1(O)CCN(C2CN(c3cc(C#N)cc(Nc4nc(NC5CC5)c5ncc(C#N)n5n4)c3Cl)C2)CC1` [Example 157, 2-((2-chloro-5-cyano-3-(3-(4-hydroxy-4-methyl-1-piperidinyl)-1-azetidinyl)phenyl)amino)-4-(cyclopropylamino)imidazo [2,1-f][1,2,4]triazine-7-carbonitrile]: 9.10. As to `CC(C)(O)C1CCN(C2CN(c3cc(C#N)cc(Nc4nc(NC5CC5)c5ncc(C#N)n5n4)c3Cl)C2)CC1` [Example 158], the pIC50 is 9.19. The result for `COC1CCN(C2CN(c3cc(C#N)cc(Nc4nc(NC5CC5)c5ncc(C#N)n5n4)c3Cl)C2)CC1` [Example 164] reads 9.24; that for `N#Cc1cnc2c(NC3CC3)nc(Nc3cc(C(N)=O)cc(N4CC(NC5COC5)C4)c3Cl)nn12` [Example 166, 4-chloro-3-((7-cyano-4-(cyclopropylamino)imidazo [2,1-f][1,2,4]triazin-2-yl)amino)-5-(3-(3-oxetanylamino)-1-azetidinyl)benzamide], 9.36; that for `CC1(O)CN(C2CN(c3cc(C#N)cc(Nc4nc(NC5CC5)c5ncc(C#N)n5n4)c3Cl)C2)C1` [Example 168, 2-((2-chloro-5-cyano-3-(3-hydroxy-3-methyl-1,3′-biazetidin-1′-yl)phenyl)amino)-4-(cyclopropylamino)imidazo [2,1-f][1,2,4]triazine-7-carbonitrile], 9.17. Turning to `C[N+]1([O-])CCN(C2CN(c3cc(C#N)cc(Nc4nc(NC5CC5)c5ncc(C#N)n5n4)c3Cl)C2)CC1` [Example 169, 2-((2-chloro-5-cyano-3-(3-(4-methyl-4-oxido-1-piperazinyl)-1-azetidinyl)phenyl)amino)-4-(cyclopropylamino)imidazo [2,1-f][1,2,4]triazine-7-carbonitrile], the pIC50 was 8.59. The same measure for `C[N+]1(C)CCN(C2CN(c3cc(C#N)cc(Nc4nc(NC5CC5)c5ncc(C#N)n5n4)c3Cl)C2)CC1` [Example 170, 4-(1-(2-chloro-5-cyano-3-((7-cyano-4-(cyclopropylamino)imidazo [2,1-f][1,2,4]triazin-2-yl)amino)phenyl)-3-azetidinyl)-1,1-dimethylpiperazin-1-ium]: 9.03; for `CS(=O)(=O)N[C@@H]1CCN(c2cc(C#N)cc(Nc3nc(NC4CC4)c4ncc(C#N)n4n3)c2Cl)C[C@H]1O` [Example 175, N-((3R,4R)-1-(2-chloro-5-cyano-3-((7-cyano-4-(cyclopropylamino)imidazo[2,1-f][1,2,4]triazin-2-yl)amino)phenyl)-3-hydroxypiperidin-4-yl)methanesulfonamide]: 8.97; for `N#Cc1cc(Nc2nc(NC3CC3)c3ncc(C#N)n3n2)c(Cl)c(N2CC[C@@H](NC(=O)OCCN3CCOCC3)[C@H](O)C2)c1` [Example 178, 2-morpholinoethyl ((3R,4R)-1-(2-chloro-5-cyano-3-((7-cyano-4-(cyclopropylamino)imidazo[2,1-f][1,2,4]triazin-2-yl)amino)phenyl)-3-hydroxypiperidin-4-yl)carbamate]: 9.11. For `COC(=O)N[C@H]1CCN(c2cc(C#N)cc(Nc3nc(NC4CC4)c4ncc(C#N)n4n3)c2Cl)C[C@@H]1OC(=O)CN` [Example 193, (3S,4S)-1-(2-chloro-5-cyano-3-((7-cyano-4-(cyclopropylamino)imidazo[2,1-f][1,2,4]triazin-2-yl)amino)phenyl)-4-((methoxycarbonyl)amino)-3-piperidinyl glycinate], the pIC50 was 8.22. Regarding `COC(=O)N[C@@H]1CCN(c2cc(C#N)cc(Nc3nc(NC4CC4)c4ncc(C#N)n4n3)c2Cl)C[C@H]1OC(=O)C1(N)CC1` [Example 194, (3R,4R)-1-(2-chloro-5-cyano-3-((7-cyano-4-(cyclopropylamino)imidazo[2,1-f][1,2,4]triazin-2-yl)amino)phenyl)-4-((methoxycarbonyl)amino)-3-piperidinyl 1-aminocyclopropanecarboxylate], the pIC50 is 8.90. In the case of `COC(=O)N[C@@H]1CCN(c2cc(C#N)cc(Nc3nc(NC4CC4)c4ncc(C#N)n4n3)c2Cl)C[C@H]1OC(=O)[C@H](C)N` [Example 195, (3R,4R)-1-(2-chloro-5-cyano-3-((7-cyano-4-(cyclopropylamino)imidazo[2,1-f][1,2,4]triazin-2-yl)amino)phenyl)-4-((methoxycarbonyl)amino)-3-piperidinyl L-alaninate], the pIC50 was 9.30. The result for `COC(=O)N[C@@H]1CCN(c2cc(C#N)cc(Nc3nc(NC4CC4)c4ncc(C#N)n4n3)c2Cl)C[C@H]1OC(=O)CN1CCOCC1` [Example 196, (3R,4R)-1-(2-chloro-5-cyano-3-((7-cyano-4-(cyclopropylamino)imidazo[2,1-f][1,2,4]triazin-2-yl)amino)phenyl)-4-((methoxycarbonyl)amino)-3-piperidinyl 4-morpholinylacetate] reads 9.10. Take `COC(=O)N[C@@H]1CCN(c2cc(C#N)cc(Nc3nc(NC4CC4)c4ncc(C#N)n4n3)c2Cl)C[C@H]1OC(=O)C(C)OP(=O)(O)O` (stereo partly drawn) [Example 197, (3R,4R)-1-(2-chloro-5-cyano-3-((7-cyano-4-(cyclopropylamino)imidazo[2,1-f][1,2,4]triazin-2-yl)amino)phenyl)-4-((methoxycarbonyl)amino)-3-piperidinyl 2-(phosphonooxy)propanoate]: the pIC50 is 8.30. For the compound `COC(=O)N[C@H]1CCN(c2cc(C#N)cc(Nc3nc(NC4CC4)c4ncc(C#N)n4n3)c2Cl)C[C@@H]1OC(=O)/C=C/C(=O)O` [Example 198, (2E)-4-(((3S,4S)-1-(2-chloro-5-cyano-3-((7-cyano-4-(cyclopropylamino)imidazo[2,1-f][1,2,4]triazin-2-yl)amino)phenyl)-4-((methoxycarbonyl)amino)-3-piperidinyl)oxy)-4-oxo-2-butenoic acid], the pIC50 was 9.19. For `COC(=O)N[C@H]1CCN(c2cc(C#N)cc(Nc3nc(NC4CC4)c4ncc(C#N)n4n3)c2Cl)C[C@@H]1OC(=O)Cc1ccc(OP(=O)(O)O)cc1` [Example 199, (3S,4S)-1-(2-chloro-5-cyano-3-((7-cyano-4-(cyclopropylamino)imidazo[2,1-f][1,2,4]triazin-2-yl)amino)phenyl)-4-((methoxycarbonyl)amino)-3-piperidinyl (4-(phosphonooxy)phenyl)acetate], the pIC50 is 9.35. Turning to `COC(=O)Nc1cc(Nc2nc(NC3CC3)c3ncc(C#N)n3n2)c(Cl)c(N2CCN(C)CC2)c1` [Example 200, methyl (4-chloro-3-((7-cyano-4-(cyclopropylamino)imidazo[2,1-f][1,2,4]triazin-2-yl)amino)-5-(4-methylpiperazin-1-yl)phenyl)carbamate], the pIC50 is 8.60. Take `COC(=O)Nc1cc(Nc2nc(NC3CC3)c3ncc(C#N)n3n2)c(Cl)c(N2CC(N3CCOCC3)C2)c1` [Example 201, methyl (4-chloro-3-((7-cyano-4-(cyclopropylamino)imidazo[2,1-f][1,2,4]triazin-2-yl)amino)-5-(3-(4-morpholinyl)-1-azetidinyl)phenyl)carbamate]: the pIC50 is 8.53.

In the case of `COC(=O)Nc1cc(Nc2nc(NC3CC3)c3ncc(C#N)n3n2)c(Cl)c(N2CC(N3CCN(C)CC3)C2)c1` [Example 203, methyl (4-chloro-3-((7-cyano-4-(cyclopropylamino)imidazo[2,1-f][1,2,4]triazin-2-yl)amino)-5-(3-(4-methyl-1-piperazinyl)-1-azetidinyl)phenyl)carbamate], the pIC50 was 8.75.
